Test results as given in patent US12480846B2, “Multi-mode separation for target detection and cell growth monitoring” (THE REGENTS OF THE UNIVERSITY OF MICHIGAN, priority 2012, dated 2025).

Test system: E. coli O157:H7
Test: Solid-interface AMBR biosensor measurement of bacterial growth in 384 well plate
Format: cell-based
Details: antibiotic above the MIC in the surrounding media, 0.5 μg/ml gentamicin
Source text: In previous AMBR applications at air-water and/or oil-water interfaces, the rotation period of the sensor slows down in response to bacterial growth; however, on solid interfaces there is an additional “dip” in the beginning of the data. Typical results for measuring bacterial growth, using the solid interface AMBR method are shown in FIG. 11, where the initial speeding up and then slowing down can be seen. […] This is true since the dip (or the slowing down) was not seen in wells with the same amount of bacteria, but that lacked nutrients (performed in PBS buffer), or contained antibiotics above the minimum inhibition concentrations.
Laboratory measurements have established that the speeding up happens with motile and non-motile, gram-negative and gram-positive cells, and with rod-like and coccal bacteria. […]
Anti-E. coli O157 functionalized, 2.8 μm diameter magnetic particles (20 μl, Invitrogen 710-03) were mixed with bacteria diluted to 10^4 CFU/ml (0.9 ml), and allowed to incubate (10 min at 37° C.) with end-over-end agitation. […] For colony counting, the samples were diluted appropriately, plated on a MH plate and the colonies were counted 18 hours later to obtain accurate bacterial concentrations and magnetic separation capture efficiencies. […]

gentamicin was tested, and the “change in rotational period of AMBR biosensor (bacterial growth response)” value was “no change in rotational period”.
